Measurements taken from US4866038A, “Method of stimulating integumental melanocytes by topical application of analogs of alpha-msh” (University Patents, Inc., priority 1988, dated 1989).
Non-standard residues stand in square brackets, D forms with d. Residues, ends and D or L forms follow the SMILES beside them. Phe(4-NO2) = N[C@@H](Cc1ccc([N+](=O)[O-])cc1)C(=O)O; Nle = CCCC[C@H](N)C(=O)O

How the values were obtained:
[1] = tested on: TA-98 strain of S. typhimurium; experiment: Ames microbacterial assay; conditions: for […] PLATE WITHOUT S-9 / REVERTANTS PER PLATE WITH S-9 / REVERTANTS PER PLATE WITHOUT S-9: TA-98, spontaneous revertants subtracted
Method: The Ames microbacterial assay was used for these tests which were performed both with and without a microsomal enzyme/NADPH generating system. Briefly, this test measures the number of reverse mutations which occur in special histidine-dependent strains of Salmonella typhimurium. Positives (mutations) are scored as the number of revertant cells which are able to form colonies in a histidine-deficient growth medium after exposure to a mutagenic substance.
All substances were dissolved in sterile 0.9% sodium chloride (without preservatives) to concentrations of 10^-2, 10^-3 and 10^-4 Molar. The TA-98 strain of S. typhimurium was used and experiments were performed with and without exposure to S-9 rat liver microsomal enzymes and an NADPH generating system. This enzyme cocktail can metabolically activate some compounds to mutagenic species. In addition to the melanotropins, Doxorubicin (Adriamycin™) was also simultaneously tested. […] It was thus included to act as a positive control. […] For the actual evaluation of revertants, the identity of the specific test compound was blinded.

C57BL/6JA^y yellow mouse = experiment: subcutaneous injection, follicular melanogenesis in the yellow mouse; type: in vivo
Source text: Alpha-MSH and [Nle^4 D-Phe^7 ]--alpha-MSH were synthesized. Mice (C57BL/6JA^y) originally obtained from the Jackson Laboratories (Bar Harbor, ME) were raised in our laboratory with continuous access to food and water.
Melanotropins induce melanogenesis only during hair growth, and melanosomes are continuously incorporated into cells of the hair shaft as long as the hair remains in the anagen (proliferative) phase of the hair cycle. Eumelanin synthesis in only those hairs currently growing results in the formation of a pattern showing the specific areas on the animal in the anagen phase at the time of hormone injection.

C57BL/6JA^y mice = experiment: topical application in PEG ointment, follicular melanogenesis in the mouse; type: in vivo
Source text: An area (2-3 cm^2) of hair on the posterior dorsum of 48-day old mice was plucked; in mice of this age, hair follicles in the posterior dorsum are in the telogen (resting) phase of the hair cycle. Plucking hairs from resting follicles stimulates new hair growth and by 7 days later those hairs being erupting through the skin surface. Mice were fitted with cardboard collars to prevent investigation and spread of the ointment to non-treated areas of the skin and then housed individually in cages. The ointment containing [Nle^4, D-Phe^7 -]alpha-MSH (0.5 ml, 10^-6 M) was applied daily to the plucked area at the time of new hair eruption. A sample of emerging hair was removed prior to topical application of the melanotropin and every 24 hours thereafter for seven days.
Eumelanin was not visible within hairs taken from control mice. […] Only phaeomelanosomes were present in mice treated with the control ointment containing no melanotropin.

[2] = tested on: Mice with some pigmentation on their skin; experiment: topical Azone cream on mice with some skin pigmentation; type: in vivo, mouse; conditions: 1.8% azone, MSH 0.001% or 0.003%
Source text: Example 4 was repeated with compositions comprising alpha-MSH or [Nle^4, D--Phe^7 ]-alpha-MSH in propylene glycol and 1-dodecylazacycloheptan-2-one [a synthetic polar surfactant previously known to enhance transdermal penetration of other compounds. See, e.g., Stoughton, R. B., Arch. Dematol. 118:479(1982); Stoughton, R. B. and W. O. McClure, Drug Devel. Indust. Pharm. 9(4):725(1983); (Azone)]. Although the vehicle was a solid at room temperature, it immediately softened and spread easily when applied to the shaved skin of the mouse.
In this example, the azone concentration was 1.8% and the MSH final concentration was either 0.001% (1mg/100g cream base) or 0.003%.
Mice with some pigmentation on their skin were treated with the same cream as Example 5.
The tails of the treated animals darkened in spite of not being directly treated topically.

frog (Rana pipiens) = type: cell-based
Method: (§1) Biological effect on in vivo and in vitro melanosome dispersion was examined using the frog (Rana pipiens) and the lizard (Anolis caroliniensis). [See Hadley et al., Science 213:1025-1027(1981)]; similar examinations were conducted with respect to the duration of its ability to stimulate melanosome dispersion in vitro using the skin bioassay as described in Shimume, Endrochrinology, 54:553-560(1954). The in vitro results are depicted in Table I.

[3] = tested on: lizard (Anolis caroliniensis); type: cell-based
Method: as §1

[4] = single injection 0.05 ml, 10^-6 M

Molecule: COc1cccc2c1C(=O)c1c(O)c3c(c(O)c1C2=O)C[C@@](O)(C(=O)CO)C[C@@H]3O[C@H]1C[C@H](N)[C@H](O)[C@H](C)O1 [Adriamycin, Doxorubicin]
- […] PLATE WITHOUT S-9 ([1]; 10 µg/ml): 230
- […] PLATE WITHOUT S-9 ([1]; 100 µg/ml): 1940
- […] PLATE WITHOUT S-9 ([1]; 1.0 g/ml): 0
- mutagenicity in vitro ([1]; TA-98, with and without S-9): significantly mutagenic

Molecule: [Nle^4, D--Phe^7 ]--alpha-MSH [[Nle^4, D-Phe^7]-alpha-MSH]
- coat color change (C57BL/6JA^y yellow mouse; 14 consecutive daily injections): entire coat color was found to be changed
- duration of eumelanogenesis after the one injection (C57BL/6JA^y yellow mouse; [4]): 96 h
- time to shift from phaeomelanin production to eumelanin synthesis within hair bulbs (C57BL/6JA^y yellow mouse; [4]): 24 h
- time to eumelanin within hair bulbs following application (C57BL/6JA^y mice; topical ointment 0.5 ml, 10^-6 M daily, microscopic examination): ≤ 24 h
- melanosomes within follicular melanocytes, electron microscopic examination (C57BL/6JA^y mice; topical ointment daily): presence of eumelanotic melanosomes within follicular melanocytes
- histologic examination of pigment [2]: increased pigment in the areas of non-follicular melancytes
- tail colour, tail not directly treated [2]: darkened

Molecule: CCCC[C@H](NC(C)=O)C(=O)N[C@@H](CCC(=O)O)C(=O)N[C@@H](Cc1c[nH]cn1)C(=O)N[C@H](Cc1ccccc1)C(=O)N[C@@H](CCCNC(=N)N)C(=O)N[C@@H](Cc1c[nH]c2ccccc12)C(=O)NCC(N)=O [Ac--[Nle^4 --D-Phe^7]--alpha-MSH4-10 --NH2]
- Relative Potency Frog (frog (Rana pipiens)): 0.02
- REVERTANTS PER PLATE WITH S-9 ([1]; 10^-2 M): 0
- REVERTANTS PER PLATE WITHOUT S-9 ([1]; 10^-2 M): 0
- REVERTANTS PER PLATE WITH S-9 ([1]; 10^-3 M): 0
- REVERTANTS PER PLATE WITHOUT S-9 ([1]; 10^-3 M): 0
- REVERTANTS PER PLATE WITH S-9 ([1]; 10^-4 M): 0
- REVERTANTS PER PLATE WITHOUT S-9 ([1]; 10^-4 M): 0

Molecule: CCCC[C@H](NC(C)=O)C(=O)N[C@@H](CCC(=O)O)C(=O)N[C@@H](Cc1c[nH]cn1)C(=O)N[C@H](Cc1ccccc1)C(=O)N[C@@H](CCCNC(=N)N)C(=O)N[C@H](Cc1c[nH]c2ccccc12)C(N)=O [Ac--[Nle^4 --D-Phe^7 --D-Trp^9]--alpha-MSH4-9 --NH2] (Ac-[Nle]EH[dF]R[dW]-NH2)
- Relative Potency Frog (frog (Rana pipiens)): 0.03
- Relative Potency Lizard [3]: 3.8

Molecule: CCCC[C@H](NC(C)=O)C(=O)N[C@@H](CCC(=O)O)C(=O)N[C@@H](Cc1c[nH]cn1)C(=O)N[C@@H](Cc1ccc([N+](=O)[O-])cc1)C(=O)N[C@@H](CCCNC(=N)N)C(=O)N[C@@H](Cc1c[nH]c2ccccc12)C(=O)NCC(=O)N[C@@H](CCCCN)C(N)=O [Ac--[Nle^ 4 --pNO2 Phe^7]--alpha-MSH4-11 --NH2] (Ac-[Nle]EH[Phe(4-NO2)]RWGK-NH2)
- Relative Potency Frog (frog (Rana pipiens)): 0.0009
- Relative Potency Lizard [3]: 0.20

Molecule: CCCC[C@H](NC(C)=O)C(=O)N[C@@H](CCC(=O)O)C(=O)N[C@@H](Cc1c[nH]cn1)C(=O)N[C@H](Cc1ccccc1)C(=O)N[C@H](CCCNC(=N)N)C(=O)N[C@@H](Cc1c[nH]c2ccccc12)C(=O)NCC(=O)N[C@@H](CCCCN)C(N)=O [Ac--[Nle^4 --D-Phe^7 --D-Arg^8]--alpha-MSH4-11 --NH2] (Ac-[Nle]EH[dF][dR]WGK-NH2)
- Relative Potency Frog (frog (Rana pipiens)): 0.00010
- Relative Potency Lizard [3]: 0.0022

Molecule: CCCC[C@H](NC(C)=O)C(=O)N[C@@H](CCC(=O)O)C(=O)N[C@@H](Cc1c[nH]cn1)C(=O)N[C@@H](Cc1ccccc1)C(=O)N[C@@H](CCCNC(=N)N)C(=O)N[C@H](Cc1c[nH]c2ccccc12)C(=O)NCC(=O)N[C@@H](CCCCN)C(N)=O [Ac--[Nle^4 --D-Trp^9]--alpha-MSH4-11 --NH2] (Ac-[Nle]EHFR[dW]GK-NH2)
- Relative Potency Frog (frog (Rana pipiens)): 0.61
- Relative Potency Lizard [3]: 1.7
